Assay results: paper PMC7156458, “Synthetic biology based construction of biological activity-related library of fungal decalin-containing diterpenoid pyrones” (Nature Communications, 2020)
“And” between values parts separate entries of the source, which are not always exact repeats. Equal entries are not always repeated. Where two headings read alike, the source gives them in different places.

Columns and labels:
SF-268 = experiment: cells; design: JFCR39 human cancer cell line panel, antiproliferative dose response (optical density), GI50; settings: Homo sapiens, SF-268
Protocol: (§1) Initially, we evaluated new DDP analogues for their antiproliferative activities across the panel of 39 human cancer cell lines, JFCR39[50],[51]. […] Purified DDPs was dissolved in DMSO (Specially Prepared Reagent, Nuclease and Protease tested, NACALAI, 09659-14) to prepare 5 mM solutions. The Each DDP solution (5 mM) was used for antiproliferative effects on cancer cell lines (Supplementary Notes 23, 24, 25, 26), biological activity against Drosophila (Supplementary Note 27), anti-HIV assay (Supplementary Note 28) and screening of amyloid Ab42 aggregation inhibitors (Supplementary Notes 29).

HCT-15 = experiment: cells; design: JFCR39 human cancer cell line panel, antiproliferative dose response (optical density), GI50; settings: Homo sapiens, HCT-15
Protocol: as §1

BSY-1 = experiment: cells; design: JFCR39 human cancer cell line panel, antiproliferative dose response (optical density), GI50; settings: BSY-1
Protocol: as §1

ACHN = experiment: cells; design: JFCR39 human cancer cell line panel, antiproliferative dose response (optical density), GI50; settings: Homo sapiens, ACHN
Protocol: as §1

HT-29 = experiment: cells; design: JFCR39 human cancer cell line panel, antiproliferative dose response (optical density), GI50; settings: Homo sapiens, HT-29
Protocol: as §1

Aβ42 = Aβ42 (Homo sapiens, UniProt P05067); experiment: TEM analysis of amyloid fibrils formed by Aβ42; type: biochemical
Aβ42, sequence (P05067 672-713): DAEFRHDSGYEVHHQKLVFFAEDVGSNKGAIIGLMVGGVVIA

IMD pathway = IMD pathway inhibition, Attacin promoter luciferase assay in l(2)mbn cells; type: cell-based, Drosophila; settings: for IC50: IMD pathway; for activity at 0.2 µM / activity at 0.4 µM / activity at 0.8 µM / activity at 1 µM / Promoter Activity (%): heat-killed E. coli
[1] = cytotoxicity in the anti-HIV assay (CC50); type: cell-based; settings: human, MAGI cells (HeLa-CD4-LTR/beta-galactosidase)
MKN-B = experiment: cells; design: JFCR39 human cancer cell line panel, antiproliferative dose response (optical density), GI50
Protocol: as §1

NCI-H460 = experiment: cells; design: JFCR39 human cancer cell line panel, antiproliferative dose response (optical density), GI50; settings: Homo sapiens, NCI-H460
Protocol: as §1

adult Drosophila = experiment: toxic effect on Drosophila adult (injection, unmoving flies); type: in vivo, Drosophila melanogaster; settings: for Number of Unmoving flies (%) Mean: 1 mM, 1h, adult flies injected (3.5 ng each), solvent 5
Text: We next tested the ability of the DDPs to affect the innate immune pathways, namely, the Toll and immune deficiency (IMD) pathways, which are the front line of defence against infection by microorganisms. […] Thus, we successfully found unique biological activity against Drosophila in 5 and 21, which may potentially be developed as insecticides.
Fig. 6 Biological activity against Drosophila. a Inhibitory effect of compound 21 on the IMD pathway Drosophila l(2)mbn cells were stimulated with heat-killed E. coli and the activity of the Attacin promoter, a read-out of the activation of the IMD pathway, was monitored by a luciferase assay. Data are means ± SEM of triplicate wells from a single experiment and are representative of two independent experiments. b Toxic effect of compound 5 on Drosophila adult. […] Data are the means ± SEM of triplicate samples from a single experiment and are representative of two independent experiments. Source data underlying Fig. 6a, b are provided in a Source Data file.
Policy information about cell lines […]
were distributed from National Cancer Institute (Frederick, MD). HT-29, MCF-7, DU-145 and PC-3 were purchased from American Type Culture Collection (Baltimore, MD). MKN-1, MKN-74, MKN-45, MKN-A and MKN-B were purchased from Immuno-Biological Laboratories, Co., Ltd., Gumma, Japan). St-4, HBC-4, HBC-5 and BSY-1 were established in Japanese Foundation for Cancer Research (Tokyo, Japan).
DL-1 and l(2)mbn were gifted from Dr. Kurata in Tohoku University.
MCF-7 (Fig.5 and Supplementary Fig. 46) were obtained from American Type Culture Collection.
HeLa-CD4-LTR/ !-galactosidase (MAGI) cells provided by Dr. J. Overbaugh through the NIH AIDS Research and Reference […]
PC-3) were authenticated by STR analysis.
DL-1 and l(2)mbn are Drosophila cell lines, and were not authenticated.
MCF-7 cells (for Fig. 5 and Supplementary Fig. 46) were authenticated by STR analysis to evaluate antiproliferative activity […]
MAGI cells were authenticated by the NIH.
Mycoplasma contamination All the cell lines tested negative for mycoplasma contamination. […]

Work on C=C1CCC2C3(C)CC(C=C(C)C)OC3CCC2(C)C1Cc1c(OC)oc(C)c(C)c1=O (stereo not drawn) [Compound 23] yielded a GI50 (SF-268) of 8.62 µM, a GI50 (HCT-15) of 0.983 µM and a GI50 (BSY-1) of 10.3 µM. It also gave a GI50 (ACHN) of 11.8 µM and a GI50 (HT-29) of 10.3 µM.

For C=C1CCC2C(C)(CCC=C(C)C)C(O)CCC2(C)C1Cc1c(OC)oc(CO)c(C(=O)OC)c1=O (stereo not drawn) [Compound 13], the “formation of typical amyloid fibrils of Aβ42” value (Aβ42) was “strongly prevented” and the “inhibitory effect on the IMD pathway” value (IMD pathway) was “moderate inhibitory effect”.

With C=C1CC[C@@H]2[C@](C)(CC[C@H]3O[C@H](C=C(C)C)C[C@@]23C)[C@@H]1Cc1c(OC)oc(CO)c(C)c1=O [Compound 20] the CC50 [1] was over 10 µM.

C=C1CC[C@H]2[C@]3(C)C[C@H](C=C(C)C)O[C@H]3CC[C@]2(C)[C@@H]1Cc1c(OC)oc(C)c(C)c1=O [Compound 24] showed a GI50 (SF-268) of 8.09 µM, a GI50 (MKN-B) of 1.28 µM and a GI50 (BSY-1) of 9.59 µM. It also gave a GI50 (ACHN) of 11.6 µM, a GI50 (NCI-H460) of 0.0901 µM and a GI50 (HT-29) of 10.1 µM.

In the case of C=C1CC[C@@H]2[C@](C)(CC[C@H]3O[C@H](C=C(C)C)C[C@@]23C)[C@@H]1Cc1c(OC)oc(CO)c(C(=O)OC)c1=O [Compound 21], the “Number of Unmoving flies (%) Mean” value (adult Drosophila) is reported as 11.6667%, the “formation of typical amyloid fibrils of Aβ42” value (Aβ42) is reported as “strongly prevented” and the “Inhibitory effect (%)” value (IMD pathway; 0.4 µM, single wells) is reported as 89.37% and 87.09%. The “Inhibitory effect (%)” value (IMD pathway; 0.8 µM, single wells) was 98.99% and 96.72%, the “Inhibitory effect (%)” value (IMD pathway; 1 µM, single wells) was 98.29% and 97.94% and the inhibition at 0.4 µM (IMD pathway; Drosophila melanogaster, 0.4 µM, single wells, read-out: Inhibitory effect (%)) was 85.2%. For the same compound, the inhibition at 0.8 µM (IMD pathway; Drosophila melanogaster, 0.8 µM, single wells, read-out: Inhibitory effect (%)) was 96.5%, the inhibition at 1 µM (IMD pathway; Drosophila melanogaster, 1 µM, single wells, read-out: Inhibitory effect (%)) was 100% and the IC50 (IMD pathway; Drosophila melanogaster, read-out: IC50) was 0.27 ± 0.01 µM. It also gave an IC50 (IMD pathway; Drosophila melanogaster, read-out: IC50 Average) of 0.273 µM, an IC50 (IMD pathway; Drosophila melanogaster, single determinations, read-out: IC50 (IC50 1, 2, 3)) of 0.26 µM and an activity at 0.2 µM (IMD pathway; Drosophila melanogaster, 0.2 µM, read-out: Promoter Activity (%) Average) of 81.5%. The activity at 0.2 µM (IMD pathway; Drosophila melanogaster, 0.2 µM, read-out: Promoter Activity (%) Final) was 81.5%, the activity at 0.2 µM (IMD pathway; Drosophila melanogaster, 0.2 µM, single wells, read-out: Promoter Activity (%)) was 73.6% and the activity at 0.4 µM (IMD pathway; Drosophila melanogaster, 0.4 µM, read-out: Promoter Activity (%) Average) was 12.8%. The activity at 0.4 µM (IMD pathway; Drosophila melanogaster, 0.4 µM, read-out: Promoter Activity (%) Final) was 12.8%, the activity at 0.4 µM (IMD pathway; Drosophila melanogaster, 0.4 µM, single wells, read-out: Promoter Activity (%)) was 14.8% and the activity at 0.8 µM (IMD pathway; Drosophila melanogaster, 0.8 µM, read-out: Promoter Activity (%) Average) was 2.58%. It also gave an activity at 0.8 µM (IMD pathway; Drosophila melanogaster, 0.8 µM, read-out: Promoter Activity (%) Final) of 2.58%, an activity at 1 µM (IMD pathway; Drosophila melanogaster, 1 µM, read-out: Promoter Activity (%) Average) of 1.26% and an activity at 1 µM (IMD pathway; Drosophila melanogaster, 1 µM, read-out: Promoter Activity (%) Final) of 1.26%. For the same compound, the IC50 (IMD pathway; single determinations, read-out: IC50 (IC50 1, 2, 3)) was 0.29 µM, the “Promoter Activity (%)” value (IMD pathway; 0.2 µM, single wells) was 82.38% and 88.33% and the “Promoter Activity (%)” value (IMD pathway; 0.4 µM, single wells) was 10.63% and 12.91%. For the same compound, the “Promoter Activity (%)” value (IMD pathway; 0.8 µM, single wells) was 3.46% and 1.01% and 3.28% and the “Promoter Activity (%)” value (IMD pathway; 1 µM, single wells) was 0.00% and 1.71% and 2.06%.

In the case of C=C1CC[C@H]2[C@]3(C)C[C@@H](C=C(C)C)O[C@H]3CC[C@]2(C)[C@@H]1Cc1c(O)c(C)c(C)oc1=O [Compound 5, subglutinol A], the “Number of Unmoving flies (%) Mean” value (adult Drosophila) is reported as 58.3333% and the “paralysing activity against adult Drosophila” value (adult Drosophila; 1 h after injection) is reported as “efficiently paralysed adult Drosophila”.
